# Source: paper PMC9169614, “Decrypting a cryptic allosteric pocket in H. pylori glutamate racemase” (Communications Chemistry, 2021)
# Assays:
# H. pylori GR = tested on: H. pylori GR; design: method as in earlier work; settings: ref 8 (Lundqvist et al.); cited from earlier work
# [1] = design: method as in PMID 31876113; settings: carboxylic acid form (α-carboxylate protonated by Cys181); cited from earlier work
# [2] = molecular target: T1, H. pylori glutamate racemase (GR) (Helicobacter pylori, UniProt Q9ZLT0); experiment: Surface plasmon resonance (SPR) binding to immobilized GR; settings: 1:1 Langmuir binding model, absence of substrate D-Glu, 25 °C, 500-7.81 µM dilution series
# T1 construct: made in house; host or cells: E. coli BL21 (DE3) pLysS, co-expressed with GroEL/ES
# Protocol: We first evaluated the binding affinity of these compounds to H. pylori GR by Surface Plasmon Resonance (SPR). A combination of amine coupling and HisCapture was used to immobilize the protein on the surface of the SPR biosensor. Compounds were injected onto the sensor in increasing concentrations using a dilution series ranging from 500 µM to 7.81 µM (7 concentrations).
# Experiments were performed using a SensiQ Pioneer SPR. The biosensor chip was first equilibrated with SPR running buffer (50 mM Tris-HCl, 100 mM NaCl, TCEP, 1% v/v TWEEN, pH 8.0), then the surface of the biosensor chip was seasoned by injecting 200 μL 50 mM NaOH at 40 μL/min, 200 μL 0.1% v/v SDS at 40 μL/min, and 200 μL 10 mM HCl at 40 μL/min in the test and reference biosensor chip flow channels. This process of seasoning was repeated twice. All buffers and solutions were filter sterilized with 0.22-μm buffer filters before using on the SPR instrument. After seasoning, the lines were primed three times with SPR buffer. […]
# H. pylori GR was immobilized to the biosensor using a HisCapture couple method detailed above. […] All sensograms were analyzed using the program Qdat (2.6.3.0) and it fitted to a model of simple binding of 1:1 Langmuir binding model for all virtual hits. […]
# [3] = molecular target: T1, H. pylori glutamate racemase (GR); experiment: Coupled-enzyme assay (L-glutamate dehydrogenase/diaphorase) of D- to L-glutamate racemization; format: biochemical; settings: 1.25 mM D-Glu, 2 µM GR, 50 mM TRIS pH 8, 5% DMSO; mean ± SE n = 3 for NP-020560 and Compound A, other hits single repeat
# Protocol: The D- to L-glutamate racemization activities of H. pylori GR was assayed through a previously established coupled-enzyme method, utilizing L-glutamate dehydrogenase and diaphorase[40]. […] The assay consists of 1.25 mM D-Glu, 2.51 mM ADP, 5 mM NAD, 0.506 mM INT, 5 Units of L-GDH, 0.4 units of diaphorase and 2 µM GR in 50 mM TRIS, pH = 8. Compound stocks solutions of varying concentrations (100 µM–50 mM) were made in DMSO and introduced in the assay vials. The final DMSO concentration after addition of compounds in the assay was 5% v/v. […] Absorption for the reduced iodonitrotetrazolium was collected by measuring absorbance at 500 nm at 1 min interval for 60 min on Cary 300 UV-VIS Spectrophotometer from Varian (Palo Alto, CA). Absorbance for each compound concentration at every time point were normalized to absorbance for blank, followed by calculating slopes for each concentration. The calculated slopes with the respective log (inhibitor concertation) were fitted to log(inhibitor) vs response (three parameters) model within ‘Nonlinear Regression-Dose Response Inhibition’ in GraphPad Prism version 8.4.3. The program provides output as IC50 and LogIC50 along with respective standard errors, and for ease of expression, we report inhibition data as IC50 (mean ± SE).
# T1 sequence (Q9ZLT0 whole entry): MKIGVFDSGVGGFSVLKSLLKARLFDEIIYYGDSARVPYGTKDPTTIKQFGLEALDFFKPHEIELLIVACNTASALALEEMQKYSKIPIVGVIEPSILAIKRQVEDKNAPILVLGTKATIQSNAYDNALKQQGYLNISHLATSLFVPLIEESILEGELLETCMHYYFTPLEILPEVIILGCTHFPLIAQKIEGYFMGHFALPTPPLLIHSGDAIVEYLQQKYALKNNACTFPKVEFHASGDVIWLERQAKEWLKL
compound,measurement,setting,value
CC(C)Cn1c(=O)n(C)c(=O)c2c(-c3ccncc3)n(Cc3cccc4ccccc34)nc21 [Compound A],IC50,H. pylori GR,5 µM
"N[C@H](CCC(=O)O)C(=O)O [D-Glu, D-glutamate]",pKa of α-carbon of D-Glu substrate,[1],14.4
Cc1cc2c(c(-c3c(O)c(C)cc4c3C(=O)c3c(O)cc(O)cc3C4=O)c1O)C(=O)c1c(O)cc(O)cc1C2=O [NP-020560],Kd,[2],54.7 ± 0.3 µM
same,IC50,[3],6.6 ± 3.1 µM
